According to patent publication US11932595B2, “VDR-silent vitamin D derivative as inhibitors of SREBP and pharmaceutical use thereof” (KYOTO UNIVERSITY, priority 2020, dated 2024):

Columns and labels:
VDR = VDR reporter assay (Cignal Vitamin D Receptor Reporter) in CHO-K1 cells; format: cell-based; details: 5 μM compound, lipid-free medium, FIGS. 2 and 4
Protocol: (§1) Cell Culture: CHO-K1 cells were maintained in medium A (1:1 mixture of Ham's F-12 medium and DMEM, supplemented with 100 units/mL penicillin, 100 μg/mL streptomycin sulfate, and 5% [v/v] fetal bovine serum) at 37° C. in a humidified 5% CO2 incubator.
(§2) CHO-K1 cells were seeded into 96-well plates at 8×10^3 cells per well in medium A and incubated for 24 h. For SREBP reporter assay, cells were co-transfected with an SRE-1-driven luciferase reporter plasmid (pSRE-Luc) and an actin promoter-driven β-galactosidase expression plasmid (pAc-13-gal) at a 20:1 ratio, using FuGENE HD Transfection Reagent (Promega) according to the manufacturer's protocol.
For VDR reporter assay, Cignal Vitamin D Receptor Reporter (QIAGEN) was transfected instead of pSRE-Luc.
(§3) After 20 h, the medium was changed to medium B (1:1 mixture of Ham's F-12 medium and DMEM, supplemented with 100 units/mL penicillin, 100 μg/mL streptomycin sulfate, 5% [v/v] lipid-depleted serum, 50 μM compactin (Tokyo Chemical Industry), and 50 μM lithium mevalonate (Sigma-Aldrich) containing the specific test compounds. After 24 h incubation, the cells in each well were lysed with 100 μL of 1× Reporter Lysis Buffer (Promega), and 50 μL of aliquots were used to measure luciferase and 13-gal activities. Luciferase activity was measured using the Steady-Glo Luciferase Assay System (Promega), and 13-gal activity was measured using the 13-Galactosidase Enzyme Assay System (Promega). Luciferase activity was normalized to 13-gal activity.
For the VDR assay, CHO-K1 cells were treated with 5 μM of the compounds in a lipid-free medium. The same experiment using 25(OH)D3 (1) was performed as control. Values are mean±SD.

SREBP = SREBP luciferase reporter assay (pSRE-Luc) in CHO-K1 cells; format: cell-based; details: for SREBP inhibitory activity (expression of SREBP-responsive luciferase reporter gene): CHO-K1 cells, 5 μM compound, lipid-free medium, 24 h, FIGS. 1 and 3
Protocol: as §1, §2, §3
[…] The same experiment using of 25(OH)D3 (1) was performed as control. Values are mean±SD.

SREBP-responsive genes = assay: Short-term in vivo model (fasting/refeeding): hepatic mRNA of SREBP-responsive genes by real-time PCR; parameters: species or system mice; details: for hepatic expression of SREBP-response genes ACC1 and FASN versus vehicle: 10 mg/kg intraperitoneally once every 24 hours, fasted 48 h/refed 48 h, n=3, FIG. 5C
Protocol: (§4) To quickly and simultaneously examine their SREBP inhibitory activity and VDR-derived calcemic activity in vivo, a short-term in vivo screening system of mice was established. With reference to the previous report (Horton, J. D. et al. Proc. Natl. Acad. Sci. U.S.A. 1998, 95, 5987-5992.), mice were fasted for 48 hours then refed a special diet (low fat, high carbohydrate diet, lacking in vitamin D) for 48 hours before sacrifice.
(§5) C57BL/6 and oh/oh mice were purchased from CLEA Japan and Charles River Japan, Inc., respectively. Animal experiments were carried out at the University of Tokyo and Charles River Laboratories. Low fat, high carbohydrate diet, lacking vitamin D was custom made by Research Diets, Inc. Compounds disclosed herein and 25(OH)D3 were dissolved in ethanol/Tween 20 (9:1) to obtain stock solution and then diluted 10-fold with PBS immediately before administration to mice.
(§6) 10 mg/kg compounds or vehicle control were administered intraperitoneally once every 24 hours during the fasting and refeeding.
Relative mRNA levels of SREBP-responsive genes were determined by real-time PCR in the livers obtained from the mice with free access to a normal diet or fasted and refed a special diet (means SEM, n=3 per group), *p<0.05.
Expression levels of SREBP-responsive genes were determined by real-time PCR in the livers obtained from the mice treated with indicated compounds (10 mg/kg) according to the protocol illustrated in FIG. 5A. Data are expressed as relative expression to the mean value of vehicle-treated mouse liver (means±SEM, n=3 per group), *p<0.05 (FIG. 5C).
Relative mRNA levels of SREBP-responsive genes were determined by real-time PCR in the livers obtained from the indicated mice Data are means±SEM (fed mice, n=3; others, n=6), *p<0.05 (FIG. 5E).

[1] = Short-term in vivo model: serum calcium levels; parameters: species or system mice; details: 10 mg/kg intraperitoneally, after 4 days, n=3, FIG. 5D
Protocol: as §4, §5, §6
Following sacrifice, mouse livers were fixed in 10% neutral-buffered formalin, embedded in paraffin, sectioned, and stained with H&E. Hepatic lipids were extracted with chloroform/methanol (2:1 v/v), and TG and cholesterol contents were measured with Triglyceride Reagent Set (Pointe Scientific) and Cholesterol E (Wako), respectively. Serum levels of ALT, TG, glucose, cholesterol, and calcium were measured in SRL Inc. (Tokyo). All experiments were approved by the Ethics Committee for Animal Experimentation of the University of Tokyo and Charles River Laboratories Japan, and were conducted in accordance with the Guidelines for the Care and Use of Laboratory Animals.
Serum calcium levels in the mice treated with vehicle, compounds, or 25(OH)D3 were determined (means±SEM, n=3 per group), *p<0.05 (FIG. 5D).

[2] = Maynard et al. J Med. Chem. 1994; cited from earlier work
[3] = cited from earlier work
SREBP/SCAP = details: Nagata, ACS Chem. Biol. 2019; cited from earlier work

Compound	VDR activity (VDR reporter activation) (VDR)	SREBP inhibitory activity (expression of SREBP-responsive luciferase reporter gene) (SREBP)	further results
C[C@H](CCCC(C)(C)O)[C@H]1CC[C@H]2/C(=C/Cn3cc(CCCCO)nn3)CCC[C@]12C [Compound 29, 6-[(1R,3aS,7aR,E)-4-{2-[4-(4-Hydroxybutyl)-1H-1,2,3-triazol-1-yl]ethylidene}-7a-methyloctahydro-1H-inden-1-yl]-2-methylheptan-2-ol]	detectable VDR activity		
C[C@H](CCC(F)(F)C(C)(C)O)[C@H]1CC[C@H]2/C(=C/Cn3cc(-c4ccc(F)cc4)nn3)CCC[C@]12C [Compound 47, (R)-3,3-Difluoro-6-[(1R,3aS,7aR,E)-4-{2-[4-(4-fluorophenyl)-1H-1,2,3-triazol-1-yl]ethylidene}-7a-methyloctahydro-1H-inden-1-yl]-2-methylheptan-2-ol]	lacked in VDR activity	maintained SREBP inhibitory activities	
C[C@H](CCCC(C)(C)O)[C@H]1CC[C@H]2/C(=C/Cn3cc(-c4ccccn4)nn3)CCC[C@]12C [Compound 26, (R)-2-Methyl-6-[(1R,3aS,7aR,E)-7a-methyl-4-{2-[4-(pyridin-2-yl)-1H-1,2,3-triazol-1-yl]ethylidene}octahydro-1H-inden-1-yl]heptan-2-ol]	detectable VDR activity		
C[C@H](CCCC(C)(C)O)[C@H]1CC[C@H]2/C(=C/Cn3cnnn3)CCC[C@]12C [Compound 21, (R)-6-{(1R,3aS,7aR,E)-4-[2-(1H-Tetrazol-1-yl)ethylidene]-7a-methyloctahydro-1H-inden-1-yl}-2-methylheptan-2-ol]	detectable VDR activity		
C[C@H](CCCC(O)(C(F)(F)F)C(F)(F)F)[C@H]1CC[C@H]2/C(=C/Cn3cc(-c4ccccc4)nn3)CCC[C@]12C [Compound 38, (R)-1,1,1-Trifluoro-6-{(1R,3aS,7aR,E)-7a-methyl-4-[2-(4-phenyl-1H-1,2,3-triazol-1-yl)ethylidene]octahydro-1H-inden-1-yl}-2-(trifluoromethyl)heptan-2-ol]			hepatic expression of SREBP-response genes ACC1 and FASN versus vehicle (SREBP-responsive genes): significantly suppressed; serum calcium levels [1]: elevated levels of serum calcium
CC1=C(/C=C\C2=CCC[C@@]3(C)[C@@H]2CC[C@@H]3[C@H](C)CCCC(C)(C)O)C[C@@H](O)C[C@@H]1O [14-epi-25(OH) D3, reference compound]			calcemic action [2]: markedly decreased calcemic action; expression of an SREBP-responsive luciferase reporter (SREBP; screening of in-house collection, data not shown): comparable level to 25(OH)D3
C[C@H](CCCC(C)(C)O)[C@H]1CC[C@H]2/C(=C/C(=O)N3CCCCC3)CCC[C@]12C [Compound 19, 2-{(1R,3 aS,7 aR,E)-1-[(R)-6-Hydroxy-6-methylheptan-2-yl]-7a-methyloctahydro-4H-inden-4-ylidene}-1-(piperidin-1-yl)ethan-1-one]		little effect	
C[C@H](CCC(F)(F)C(C)(C)O)[C@H]1CC[C@H]2/C(=C/Cn3nnc(-c4ccc(F)cc4)n3)CCC[C@]12C [Compound 49, 3,3-Difluoro-6-[(1R,3aS,7aR,E)-4-{2-[5-(4-fluorophenyl)-2H-tetrazol-2-yl]ethylidene}-7a-methyloctahydro-1H-inden-1-yl]-2-methylheptan-2-ol]	lacked in VDR activity	maintained SREBP inhibitory activities	hepatic expression of SREBP-response genes ACC1 and FASN versus vehicle (SREBP-responsive genes): significantly suppressed; elevated hepatic expression of the three SREBP-responsive genes ACC1, FASN and SCD1 (SREBP-responsive genes; 10 mg/kg intraperitoneally, fasting/refeeding, FIG. 5C): mitigated the elevated expression; serum calcium levels [1]: no detectable increase
C[C@H](CCCC(C)(C)O)[C@H]1CC[C@H]2/C(=C/Cn3ncnn3)CCC[C@]12C [Compound 22]	detectable VDR activity		
C[C@H](CCCC(C)(C)O)[C@H]1CC[C@H]2/C(=C/C(=O)N3CCOCC3)CCC[C@]12C [Compound 20, 2-{(1R,3aS,7aR,E)-1-[(R)-6-Hydroxy-6-methylheptan-2-yl]-7a-methyloctahydro-4H-inden-4-ylidene}-1-morpholinoethan-1-one]		little effect	
C[C@H](CCC(F)(F)C(C)(C)O)[C@H]1CC[C@H]2/C(=C/Cn3nnnc3-c3ccc(F)cc3)CCC[C@]12C [Compound 51, (R)-3,3-Difluoro-6-[(1R,3aS,7aR,E)-4-{2-[5-(4-fluorophenyl)-1H-tetrazol-1-yl]ethylidene}-7a-methyloctahydro-H-inden-1-yl]-2-methylheptan-2-ol]	lacked in VDR activity	maintained SREBP inhibitory activities	
C[C@H](CCCC(O)(C(F)(F)F)C(F)(F)F)[C@H]1CC[C@H]2/C(=C/Cn3cc(-c4ccc(F)cc4)nn3)CCC[C@]12C [Compound 39, (R)-1,1,1-Trifluoro-6-[(1R,3aS,7aR,E)-4-{2-[4-(4-fluorophenyl)-1H-1,2,3-triazol-1-yl]ethylidene}-7a-methyloctahydro-1H-inden-1-yl]-2-(trifluoromethyl)heptan-2-ol]	lacked in VDR activity	maintained SREBP inhibitory activities	hepatic expression of SREBP-response genes ACC1 and FASN versus vehicle (SREBP-responsive genes): significantly suppressed; serum calcium levels [1]: elevated levels of serum calcium
Cc1ccc(S(=O)(=O)N[C@@H]2C/C(=C/C=C3\CCC[C@]4(C)[C@@H]([C@H](C)CCCC(O)(C(F)(F)F)C(F)(F)F)CC[C@@H]34)C[C@@H](F)C2)cc1 [Compound 3]			calcemic activity in vivo ([3]; high doses): residual calcemic activity; bioavailability ([3]; in vivo): low; effect on SREBP/SCAP and VDR activity in cultured cells (SREBP/SCAP): selectively impaired SREBP/SCAP without eliciting VDR activity
